{"source": "paper PMC8779485", "about": "“Implementation and Comparison of Two Pharmacometric Tools for Model-Based Therapeutic Drug Monitoring and Precision Dosing of Daptomycin” (Pharmaceutics, 2022)", "key": {"[1]": {"experiment": "Daptomycin TDM in patients with bone and joint infection, Bayesian estimation with nonparametric model in BestDose (validation dataset)", "excerpt": "(§1) We used two data sets: a learning set used to derive the nonparametric population model of daptomycin and a validation dataset. The learning dataset was described in a previous publication from our group, which focused on the influence of P-gp gene polymorphism on daptomycin PK (n = 81 patients). […] All patients were enrolled in a cohort study after information. This cohort study was subject to a declaration to the local Commission for Data Protection and Liberties (number 17-057) and is registered on ClinicalTrial.gov (number NCT03134521). In addition, patients’ written informed consent was obtained for P-gp genotyping, in accordance with French regulation.\n(§2) Blood samples for daptomycin TDM were obtained during hospitalization or follow-up visit at the BJI center. In most patients, TDM was performed on several occasions to control drug exposure throughout therapy. At each occasion, a typical PK profile was obtained, including three plasma samples collected approximately pre-dose (trough or Cmin), 30 min and 5 to 6 h after daptomycin administration. On some occasions, only one or two samples could be obtained. Sampling times were recorded precisely in each patient. Daptomycin plasma concentrations were measured using an HPLC assay with a photodiode array detector. The method was adapted from a previous publication.\n(§3) In our previous work, the final population PK model of daptomycin was built by using a parametric approach (SAEM algorithm in the Monolix software). […] We reanalyzed the original dataset in order to implement a nonparametric model into the BestDose software. The NPAG algorithm embedded into the Pmetrics package for R was used to develop the nonparametric model. […] The error model was based on the assay error pattern. The predictive performance of the final model was assessed by computing the bias and precision of model-based individual predictions (see below). The model was then imported into the Windows version of the BestDose software.\n(§4) We used an external dataset from 94 patients who received daptomycin for BJI and had TDM to validate the predictive performance of our nonparametric model in BestDose and that of the parametric model in Tucuxi. In this evaluation, we only used the daptomycin concentrations collected during the first TDM occasion in each patient.\n(§5) The dosage history, covariate values, times and values of measured concentrations in each patient were entered into each program. The population model was fit to individual data by using Bayesian regression in both tools. After estimation of Bayesian posterior individual PK parameters, the estimated PK profile of each patient was obtained, including predictions of measured daptomycin concentrations.\n(§6) Because daptomycin AUC is an important predictor of its antibacterial effect, we also compared the estimations of individual daily AUC (AUC24h) in the 94 patients provided by BestDose and Tucuxi."}, "[2]": {"experiment": "Daptomycin TDM in patients with bone and joint infection, Bayesian estimation with parametric model (Dvorchik et al.) in Tucuxi (validation dataset)", "excerpt": "as §1, §2\nAs we aimed at comparing our nonparametric model to a reference model for TDM and dose adjustment, we implemented the seminal daptomycin parametric model developed by daptomycin’s manufacturer into the Tucuxi software. Tucuxi is a new software dedicated to the analysis of TDM results and individual dose adjustment (http://www.tucuxi.ch/, accessed 27 December 2021).\nThe two-compartment reference model from Dvorchik et al. was imported into Tucuxi, including its error model and all its covariates except body temperature, which influenced daptomycin clearance in the original model. This covariate was discarded because it is not measured consistently in all patients in routine, especially in outpatients, and its value may be altered by co-treatment such as acetaminophen. The other covariates were retained, with creatinine clearance and sex influencing daptomycin clearance and body weight influencing both intercompartment clearance and peripheral volume of distribution.\nas §4, §5, §6"}, "[3]": {"experiment": "Nonparametric population PK model of daptomycin (NPAG, Pmetrics) in the learning dataset", "excerpt": "as §1, §2, §3"}, "[4]": {"conditions": "cited from earlier work", "description": "Daptomycin is a cyclic lipopeptide antibiotic with bactericidal activity on Gram-positive bacteria discovered in 1980 [1, 2]. The Food and Drug Administration (FDA) approved its use in 2003 for treating complicated skin and skin structure infections and Staphylococcus aureus bloodstream infections, including those with right-sided infective endocarditis. In those indications, the recommended dosing regimen ranges from 4 to 6 mg/kg. Daptomycin is also used off-label in various indications, including bloodstream infections caused by Gram-positive agents others than S. aureus and bone an ..."}, "[5]": {"conditions": "in vivo; cited from earlier work", "excerpt": "However, increasing daptomycin doses raises concerns about safety. It was shown that daptomycin muscular toxicity, as measured by elevation in serum creatinine phosphokinase (CPK), correlated with plasma trough concentration (Cmin)."}, "[6]": {"conditions": "patients who received 6 mg/kg; cited from earlier work"}, "[7]": {"conditions": "learning dataset n = 81, Pmetrics estimation, mean"}, "[8]": {"conditions": "learning dataset n = 81, Pmetrics estimation, median"}}}
{"smiles": "CCCCCCCCCC(=O)N[C@@H](Cc1c[nH]c2ccccc12)C(=O)N[C@H](CC(N)=O)C(=O)N[C@@H](CC(=O)O)C(=O)N[C@@H]1C(=O)NCC(=O)N[C@@H](CCCN)C(=O)N[C@@H](CC(=O)O)C(=O)N[C@H](C)C(=O)N[C@@H](CC(=O)O)C(=O)NCC(=O)N[C@H](CO)C(=O)N[C@@H]([C@H](C)CC(=O)O)C(=O)N[C@@H](CC(=O)c2ccccc2N)C(=O)O[C@@H]1C", "note": "[daptomycin, Daptomycin]", "values": [{"measurement": "T1/2 (terminal half-life)", "setting": "[1]; BestDose individual estimate, validation dataset n = 94, mean ± SD, SD", "value": "16.8 ± 10.6", "unit": "h"}, {"measurement": "Proportion of patients with AUC24h < 666 mg.h/L (underexposed)", "setting": "[1]; human, in vivo", "value": 21.3, "unit": "%"}, {"measurement": "AUC24h", "setting": "[1]; human, in vivo, 1.3 mg/kg, SD", "value": "975 ± 395", "unit": "µg·h/mL"}, {"measurement": "CLdap (daptomycin total body clearance)", "setting": "[1]; human, in vivo, SD", "value": "0.74 ± 0.42", "unit": "L/h"}, {"measurement": "Cmin", "setting": "[1]; human, in vivo, SD", "value": "21300 ± 12900", "unit": "ng/mL"}, {"measurement": "Dmin (minimum effective dose to attain AUC24h = 666 mg.h/L at steady-state)", "setting": "[1]; human, in vivo, SD", "value": "6.4 ± 2.7", "unit": "mg/kg"}, {"measurement": "Predicted concentrations", "setting": "[1]; human, in vivo, SD", "value": "46.6 ± 46.7", "unit": "mg/L"}, {"measurement": "V1", "setting": "[1]; human, in vivo, SD", "value": "7.9 ± 3.5", "unit": "L"}, {"measurement": "T1/2 (terminal half-life)", "setting": "[2]; Tucuxi individual estimate, validation dataset n = 94, mean ± SD", "value": "13.1 ± 4.7", "unit": "h"}, {"measurement": "AUC24h", "setting": "[2]; human, in vivo, SD", "value": "893 ± 345", "unit": "µg·h/mL"}, {"measurement": "CLdap (daptomycin total body clearance)", "setting": "[2]; human, in vivo, SD", "value": "0.73 ± 0.29", "unit": "L/h"}, {"measurement": "Dmin (minimum effective dose to attain AUC24h = 666 mg.h/L at steady-state)", "setting": "[2]; human, in vivo, SD", "value": "6.9 ± 2.8", "unit": "mg/kg"}, {"measurement": "Predicted concentrations", "setting": "[2]; human, in vivo, SD", "value": "44.3 ± 44.5", "unit": "mg/L"}, {"measurement": "V1", "setting": "[2]; human, in vivo, SD", "value": "5.9 ± 2.4", "unit": "L"}, {"measurement": "Kpc (transfer rate constant peripheral to central), mean", "setting": "[3]; in vivo", "value": 0.667, "unit": "h⁻¹"}, {"measurement": "Kpc (transfer rate constant peripheral to central), median", "setting": "[3]; in vivo", "value": 0.449, "unit": "h⁻¹"}, {"measurement": "Kcp (transfer rate constant central to peripheral), mean", "setting": "[3]; [7]", "value": 0.693, "unit": "h⁻¹"}, {"measurement": "Ki (non-renal component of elimination rate constant), mean", "setting": "[3]; [7]", "value": 0.060, "unit": "h⁻¹"}, {"measurement": "Ks (renal component of elimination rate constant), mean", "setting": "[3]; [7]", "value": "0.050 h^−1 per 100 mL/min of CLCR"}, {"measurement": "Kcp (transfer rate constant central to peripheral), median", "setting": "[3]; [8]", "value": 0.287, "unit": "h⁻¹"}, {"measurement": "Ki (non-renal component of elimination rate constant), median", "setting": "[3]; [8]", "value": 0.052, "unit": "h⁻¹"}, {"measurement": "Ks (renal component of elimination rate constant), median", "setting": "[3]; [8]", "value": "0.045 h^−1 per 100 mL/min of CLCR"}, {"measurement": "V1 (central volume of distribution), mean", "setting": "[3]; population parameter, learning dataset n = 81, Pmetrics estimation, mean", "value": 6.90, "unit": "L per 70 kg"}, {"measurement": "V1 (central volume of distribution), median", "setting": "[3]; population parameter, learning dataset n = 81, Pmetrics estimation, median", "value": 7.18, "unit": "L per 70 kg"}, {"measurement": "Average ratio of area under the unbound concentration time-curve in bone over plasma", "setting": "[4]; 10 patients", "value": 1.08}, {"measurement": "Average tissue to plasma concentration ratio, bone", "setting": "[4]; bone", "value": 14.1, "unit": "%"}, {"measurement": "Average tissue to plasma concentration ratio, synovial fluid", "setting": "[4]; synovial fluid", "value": 54, "unit": "%"}, {"measurement": "Upper bound for Cmin target (CPK elevation)", "setting": "[5]", "value": 24300, "unit": "ng/mL"}, {"measurement": "Rate of efficacy target attainment", "setting": "[6]", "value": 40, "unit": "%"}]}
